Measured values from patent US20250026779A1 (priority 2023, published 2025).

Legend:
[1] = target: T1, HiScribe T7 RNA synthesis kit (IVT reaction, DNA template encoding Lucia) (Escherichia phage T7, UniProt P00573); assay: In vitro transcription (IVT) of mRNAs containing cap analogs: yield / incorporation; format: biochemical
T1 construct: purchased New England Biolabs
Experimental: mRNA was transcribed from DNA template encoding Lucia using HiScribe T7 RNA synthesis kit (New England Biolabs, Ipswich, MA, USA). N^1-Methylpseudo-UTP (TniLink, San Diego, CA, USA) was used in replaced of UTP for the reaction. For 5′ capping of the mRNA, the cap analog compounds (e.g., Compounds 1-4) described herein, or CleanCap (TriLink, San Diego, CA, USA), were added to the IVT reaction, as indicated. The reactions were performed for 4 hours at 37° C.
Purification of the transcript was performed by TURBO DNase digestion (ThermoFisher Scientific, Waltham, MA, USA) for 30 min at 37° C. followed by RNAClean XP beads (Beckman Coulter) clean up. The RNA bound beads were washed 3 times with freshly prepared 70% ethanol, air dried for 15 minutes followed by elution in 200 μL of nuclease free water. The purified mRNA was quantified using nanodrop (ThermoFisher Scientific, Waltham, MA, USA) and analyzed using Tapestation (Agilent, Santa Clara, CA, USA).

Balb/c mice = assay: In vivo expression of Lucia mRNAs containing cap analogs; settings: Lucia mRNA capped with the compound, compared with Cap1 (FIG. 1C)
Experimental: Candidate RNAs were formulated using proprietary lipid-based delivery vehicles (e.g., as described in WO 2020/069442 and WO 2023/014931) and administered to Balb/c mice at a dose of 15 μg per mouse. In life serum draws were conducted via submandibular vein at selected time points starting 2 hours post-dose. Serum was diluted 5 μL into […] of QUANTI-Luc reagent (InvivoGen, San Diego, CA, USA) and measured immediately using a plate reader (Molecular Devices, San Jose, CA, USA).

[2] = tested on: human Dendritic Cells (differentiated from PBMCs); assay: Cap immunogenicity by multiplexed cytokine screening (Luminex) in dendritic cells; format: cell-based; settings: human DCs, 24 hours, compared with Cap1 (FIGS. 3A-3F)
Experimental: Fresh human Dendritic Cells (differentiated from PBMCs by GM-CSF+IL-4 stimulation) were plated at 5e4 cells per well in 96 well flat TC treated dish. mRNA was prepared in Lipofectamine MessengerMAX transfection reagent according to manufacturer's instructions at 2ng/1 k cells. Briefly, mRNA was diluted to 0.02 μg/μl in Opti-MEM reduced serum medium and mixed 1:1 with MessengerMAX to a concentration of 0.01 μg/μl. Two 1:10 dilutions were performed and 10 or 2.5 μl per well of each dilution was added directly to DCs in resulting doses of 2, 0.5, 0.2, 0.05 and 0.02 ng per 1000 DCs. Immunostimulatory RIG-1 agonist Hairpin RNA (3p-hpRNA, InvivoGen) and double stranded RNA (5′ ppp-dsRNA, InvivoGen) were used as controls and formulated as described above.
Stimulated DCs were incubated for 24 hours at 37° C. with 5% CO2. Supernatant was collected and immediately frozen at −80° C. It was subsequently thawed and prepared for Luminex xMAP analysis using a Human Inflammation 20-Plex ProcartaPlex Panel kit (ThermoFisher) according to the manufacturer's instructions. Data was acquired on a MAGPIX system (Luminex xMAP instrument) and pg/mL values for each analyte were derived from a standard curve generated with kit components. Values outside the range of the standard curve were reported as mean fluorescence intensity (MFI).

T1 sequence (P00573 whole entry): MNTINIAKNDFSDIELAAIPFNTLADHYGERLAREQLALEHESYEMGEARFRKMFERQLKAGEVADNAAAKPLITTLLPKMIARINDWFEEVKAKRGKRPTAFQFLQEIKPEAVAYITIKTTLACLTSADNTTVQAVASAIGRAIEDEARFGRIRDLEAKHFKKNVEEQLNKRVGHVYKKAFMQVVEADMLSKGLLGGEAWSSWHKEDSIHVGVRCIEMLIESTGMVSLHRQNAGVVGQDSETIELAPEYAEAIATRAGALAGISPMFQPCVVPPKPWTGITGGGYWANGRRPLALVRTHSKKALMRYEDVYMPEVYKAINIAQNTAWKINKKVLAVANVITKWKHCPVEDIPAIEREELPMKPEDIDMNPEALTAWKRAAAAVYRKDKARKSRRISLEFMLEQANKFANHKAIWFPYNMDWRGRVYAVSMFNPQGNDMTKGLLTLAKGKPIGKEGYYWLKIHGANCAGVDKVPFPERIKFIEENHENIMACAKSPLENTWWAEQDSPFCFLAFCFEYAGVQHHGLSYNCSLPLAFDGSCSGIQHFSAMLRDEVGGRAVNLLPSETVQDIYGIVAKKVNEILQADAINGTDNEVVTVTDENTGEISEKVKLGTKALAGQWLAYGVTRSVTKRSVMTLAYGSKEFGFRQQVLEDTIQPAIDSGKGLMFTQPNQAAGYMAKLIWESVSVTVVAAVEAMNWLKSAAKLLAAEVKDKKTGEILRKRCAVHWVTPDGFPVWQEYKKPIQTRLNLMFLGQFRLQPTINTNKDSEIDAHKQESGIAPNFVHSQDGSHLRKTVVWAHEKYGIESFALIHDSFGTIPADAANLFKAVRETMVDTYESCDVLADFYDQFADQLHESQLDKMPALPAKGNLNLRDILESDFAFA

Q: Which results are given for CC[n+]1cn([C@@H]2O[C@H](COP(=O)(O)OP(=O)([O-])OP(=O)(O)OC[C@H]3O[C@@H](n4cnc5c(N)ncnc54)[C@H](OC)[C@@H]3OP(=O)(O)OC[C@H]3O[C@@H](n4cnc5c(=O)[nH]c(N)nc54)[C@H](O)[C@@H]3O)[C@@H](O)[C@H]2O)c2nc(N)[nH]c(=O)c21 [Compound 1]?
A: IVT yield ([1]; mRNA capped with the compound, compared with Cap1 (FIG. 1A)): equivalently; incorporation into IVT ([1]; trinucleotide cap modified at the 7G position): successfully incorporated; in vivo expression (Balb/c mice): equivalently

Q: With CC[n+]1cn([C@@H]2O[C@H](COP(=O)(O)OP(=O)(O)OP(=O)(O)OC[C@H]3O[C@@H](n4cnc5c(N)ncnc54)[C@H](OC)[C@@H]3O[P@@]([O-])(=S)OC[C@H]3O[C@@H](N4C=NC5C(=O)NC(N)=NC54)[C@H](O)[C@@H]3O)[C@@H](O)[C@H]2O)c2nc(N)[nH]c(=O)c21 (stereo partly shown) [Compound 3] as the molecule, how does the “immunogenicity across key cytokine markers (IFNγ, IFNα, IP-10, IL-1α, TNFα)” value [2] read?
A: lower
